# Measured values as given in article PMC6934184, “Selective DNA-PKcs inhibition extends the therapeutic index of localized radiotherapy and chemotherapy” (The Journal of Clinical Investigation, 2019).
# Target: T1, CDK2/cyclin O (Homo sapiens, UniProt P24941)
# T1 construct: purchased Thermo Fisher Scientific (Life Technologies) SelectScreen
# Experiment: SelectScreen LanthaScreen
# Type: binding
# Conditions: 1 µM
# How it was run: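 Percent values come from Thermo SelectScreen profiling of NU5455, combining activity and binding assays. CSF1R was run in Z'LYTE format at Km app ATP, and CAMK1 in Adapta format with ATP listed at 10.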
compound,measurement,value
CN(C(=O)CN1CCOCC1)c1ccc2sc3c(-c4cccc5c(=O)cc(N6CC7CCC(C6)O7)oc45)cccc3c2c1 [NU5455],% displacement,0.9%
